Common to all, as to format: cell-based
The subject of data set [1] is HepG2 cells. In words: Cytotoxicity of RSSH donors, CCK-8 assay. Conditions: up to 200 μM, 24 h. As for the experimental part:
We next evaluated the effects of RSSH donors on DOX activity in three representative cancer cell lines: triple-negative breast cancer MDA-MB-468, ER-positive breast cancer MCF-7, and hepatocellular carcinoma HepG2.
Figure S22. Measurement of Cys-SH and GSH in cytoplasm (A, B) and mitochondria (C, D) of H9c2 cells treated with APT-1 (200 µM) APT-1-TPP (200 µM), or vehicle (0.01% DMSO in serum-free medium) for 2 h. Data are mean ± SEM (n = 3); *p ≤ 0.05, **p ≤ 0.01.
Cytotoxicity Assessment of Hydropersulfide Precursors in H9c2 and HepG2 cells Cell viability was measured using the Cell Counting Kit-8 (CCK-8, Dojindo).[7] […] The plates were then incubated for 1-2 h before measuring absorbance at 450 nm using a plate reader […]
calculated as: % Viability = 100 × [Abs₄₅₀ (treated cells) / Abs₄₅₀ (vehicle control)]. […]
Figure S23. […] Results are expressed as mean ± SEM, n≥3; *P<0.05, **P<0.01, ***P<0.001, ****P<0.0001. […]
Cytoprotective studies were performed as previously described.[8] […] The plates were then incubated for 1-2 h before measuring absorbance at […]
The relative % cell viability was calculated as 100 times the ratio of Abs450 (RSSH donor + DOX-exposed) to Abs450 (vehicle, non-DOX-exposed). […]
Basal sulfane sulfur levels were quantified using the fluorescent probe Sulfobiotics SSP4 (Dojindo, SB10) as previously described.[5] […]

Data set [2] deals with HepG2 cells. The data set is described as follows: Mitochondrial membrane potential (TMRM) under DOX. The settings on record: donor 25 μM, 4 h pretreatment, DOX 5 μM 24 h. The protocol: (§1) Figure 6. a) Basal sulfane sulfur (SS) levels in H9c2 cardiomyocyte, MDA-MB-468, MCF-7, and HepG2 cell lines as detected by SSP4 fluorescence. b) Representative images and c) basal levels of mitochondrial membrane potential (MMP) in H9c2 and cancer cells (MDA-MB-468, MCF-7, and HepG2). d) Impact of APT-1 (25 μM) or APT-1-TPP (25 μM) on MMP in DOX (5 μM)-treated (d) H9c2 and e) HepG2 cells. Impact of APT-1 (25 μM) and APT-1-TPP (25 μM) on ATP levels in DOX (5 μM)-treated f) H9c2 and g) HepG2 cells. Results are expressed as mean ± SEM, n = 3–6; *P < 0.05, **P < 0.01, ***P < 0.001, ****P < 0.0001. Significances in (a) and (c) are presented with respect to H9c2 cells.
(§2) We then examined how RSSH donors influence MMP during DOX exposure. As expected, DOX alone induced mitochondrial depolarization in H9c2 cells, reducing MMP to ca. 50% of control (Figure 6d). […] To complement these observations, we quantified intracellular ATP levels as a functional readout of mitochondrial activity. […]
(§3) Mitochondrial Membrane Potential Measurements
(§4) Mitochondrial membrane potential was measured using Image-iT™ TMRM Reagent (Cat#I34361, Invitrogen, USA) according to the manufacturer's protocols. […]
(§5) The cells were incubated for an additional 24 h. After completion of treatment, cells were washed with a warm clear DMEM medium (with 10% FBS) and incubated in culture media containing TMRM (working solution 100 nM) for 30 min at 37 °C. Cells were then washed with a warm clear FBS-free DMEM medium (3 times) before imaging. Images were obtained with Zeiss LSM 800 with AiryScan Confocal (λex = 548 nm, λem = 573 nm). During each experiment, 6 field images were obtained for each experimental group. Images were analyzed using Image J software, and all cells in each image were selected for fluorescence intensity measurement (cell-free space was also measured as blank). H9c2 signal intensity was set to 100% and signal intensity for all the other cell lines was shown as a percentage of that of H9c2.
(§6) The experiments were independently repeated three times (n = 3 biological replicates). Data are […]
(§7) Figure S24. Representative TMRM images for mitochondrial membrane potential (MMP) in H9c2 and HepG2 cells with APT-1 and APT-1-TPP treatment under DOX stress. Ctl = vehicle (medium with 0.01% […]
(§8) (1 picture or pasted object on this page, not shown here)

In data set [3] the test system is H9c2 cells. In words: Mitochondrial membrane potential (TMRM) under DOX. The settings on record: donor 25 μM, 4 h pretreatment, DOX 5 μM 24 h. As for the experimental part: as §1, §2, §3, §4, §5, §6, §7, §8

Turning to `COC(=O)C(NC(C)=O)C(C)(C)SSC(=O)N(C)CCOC(C)=O` (stereo not drawn) [APT-1], the “cytotoxicity of donor alone” value in data set [1] is recorded as “non-toxic”. For the same compound, the “effect on DOX-induced mitochondrial depolarization” value in data set [2] was “neither donor prevented DOX-induced mitochondrial depolarization”. Moreover, the “effect on DOX-induced loss of MMP” value in data set [3] is recorded as “preserved MMP”.
On to `CC(=O)NC(C(=O)N(C)CCC[P+](c1ccccc1)(c1ccccc1)c1ccccc1)C(C)(C)SSC(=O)N(C)CCOC(C)=O` (stereo not drawn) [APT-1-TPP], for which the “cytotoxicity of donor alone” value in data set [1] is listed as “non-toxic”. Besides, the “effect on DOX-induced mitochondrial depolarization” value in data set [2] is reported as “further exacerbated MMP loss”. Moreover, the “effect on DOX-induced loss of MMP” value in data set [3] is recorded as “conferred protection, though to a slightly lesser extent”.

Values taken from PMC13224100, “Esterase-Responsive Mitochondria-Targeted Hydropersulfide Donors Mitigate Doxorubicin Cardiotoxicity While Preserving Anticancer Activity” (Angewandte Chemie (International ed. in English), 2025).
